The results in this text go back to patent publication US10907158B2, “Antisense antibacterial compounds and methods” (priority 2015, dated 2021).

For one assay, the system named is NDM-1 strains. The assay is described as follows: MIC of meropenem in various concentrations of NDM-1 PPMO. Type of assay: cell-based, K. pneumoniae. As to conditions: Klebsiella pneumoniae; meropenem without PPMO.
A further assay deals with K. pneumoniae. Nature of the assay: MIC of meropenem in various concentrations of KPC PPMO. As to conditions: Klebsiella pneumoniae, read-out: MIC of meropenem.
The subject of a further assay is E. coli BW25113. Type of assay: cell-based. The note with it: Pip/Tazo alone, 18 h, MHII.
In the next assay the test system is Pseudomonas aeruginosa. As to conditions: 18 hours.

Description for Pseudomonas aeruginosa: Strains were grown on MSEC biofilm plates for 18 hours in the presence of PMBN at 2 μg/ml and the PPMO, a scrambled PPMO or nothing. The numbers in each cell represent the concentration of PPMO that reduced biofilm by 50% or greater.
Pseudomonas biofilms were grown in the presence or absence of PPMOs (as indicated). Biofilms were grown for 18 hours and then stained with crystal violet. Three strains were tested with multiple PPMO doses as shown. Percent reduction compared to no PPMO control is shown.
Polymyxin B nonapeptide (PMBN) was used at sub-inhibitory concentrations to enhance delivery of PPMOs in Pseudomonas.

As for `C[C@@H](O)[C@H]1C(=O)N2C(C(=O)O)=C(S[C@@H]3CN[C@H](C(=O)N(C)C)C3)[C@H](C)[C@H]12` [meropenem], the MIC with NDM-1 strains came to 64 µg/mL; with K. pneumoniae it was 32 µg/mL. Consider Piperacillin/Tazobactam [Pip/Tazo], for which the MIC in the assay on E. coli BW25113 was 4 µg/mL. Polymyxin B nonapeptide [PMBN]: the “effect on biofilm formation” value in the assay on Pseudomonas aeruginosa was “did not significantly alter biofilm formation”.

Usually MIC stands for the lowest concentration that inhibits growth of the organism.
